US20090143419A1, “METHODS AND COMPOSITIONS FOR CONTROLLING ECTOPARASITES” (HATCHTECH PTY LTD, priority 2005, published 2009)

Experiments:
[1] = system: Plutella xylostella eggs (Waite strain); experiment: Egg hatching of Plutella xylostella; conditions: Table 9; 10 mM; relative to control (100% MeOH)
Method: The egg masses were then placed in a humid box at 25 degrees until egg hatch. Control eggs were exposed to absolute methanol as described above. At day 6 post laying the eggs were assessed from the different treatments and the percentage of egg hatch determined relative to the control as shown in Table 9.
Batches of Plutella eggs that were laid on either fine cloth or parafilm were dipped in a specific inhibitor solution for between 2-10 seconds, the excess solution was drained by blotting with dry tissue paper. The egg masses were then placed in a humid box at 25 degrees until egg hatch. Control eggs were exposed to absolute methanol as described above or not treated. At day 6 post laying the eggs were assessed from the different treatments and the percentage of egg hatch determined relative to the controls as shown in Tables 10 and 11.
Batches of Plutella eggs that were laid on fine cloth were dipped in a specific inhibitor solution for approximately 2 seconds, the excess solution was drained by blotting with dry tissue paper. The egg masses were then placed in a humid box at 25 degrees until egg hatch. Control eggs were exposed to absolute methanol as described above or not treated. At day 6 post laying the eggs were assessed from the different treatments and the percentage of egg hatch determined relative to the control as shown in Table 12.
The egg masses were then placed in a humid box at 25 degrees until egg hatch. Control eggs were exposed to absolute ethanol as described above. On day 6 post laying the eggs were assessed from the different treatments and the percentage of egg hatch determined relative to the control.

[2] = system: lice hatching proteases in the egg shell washings (ESW); experiment: Gelatine substrate SDS-PAGE of egg shell washings treated with protease inhibitors; format: biochemical, Pediculus humanus humanus; conditions: 10 mM inhibitor; 3 hrs at 37° C.
Method: Within 12 hours of hatching 50 body lice eggs (Pediculus humanus humanus) were removed from the hair and placed in a 1 ml eppendorf tube. 20 μL of distilled water was added to the unhatched eggs and the preparation incubated for 30 minutes at 32° C. The 20 μL was recovered, freeze dried and stored at −70° C. A number of other samples were also collected as described. Hair samples from which unhatched lice eggs had been removed were also collected and incubated as described above. In addition, a sample of unhatched eggs and a sample of hair from which lice eggs had been removed were collected 7 days post laying (within 24 hrs of egg hatching). Both samples were washed in 10 mls of a 1% solution of sodium hypochlorite for 1 minute followed by a 5×1 minute washes in 25 mls in distilled water to remove the hypochlorite. These samples were then incubated in 20 μL of distilled water as described above. In addition, a group of 25 lice eggs that were within 24 hours of hatching, were pretreated with 1% sodium hypochlorite, washed as described above and left to hatch. Within 1-2 hours after hatching the empty egg shells were incubated in 20 μL of distilled water as described above, the washings collected from the hatched egg shells and stored at −70° C. All of the extract samples were then freeze-dried overnight. The freeze-dried samples were then resuspended in 15 μL of non-reducing SDS sample buffer, centrifuged at 10,000 g for 2 minutes and the entire 15 μL loaded on to 10% gelatine substrate SD S-PAGE gels. Gels were run at 4° C. for 10 minutes at 10 mA followed by a further 25 minutes at 15 mA per gel. They were then incubated for 2×20 minutes in a 2.5% Triton-X 100 solution followed by a three hour incubation in 0.1M Tris/HCl containing 1 mM CaCl2 pH 8.0. Activity was detected as clear areas on the gel the result of protease activity degrading the gelatine within the gel.
10% SDS-PAGE gelatine substrate gels were loaded with freeze dried egg shell washings from 100 lice eggs that had been resuspended in 50 μl of non-reducing sample buffer with samples run at 10 μl per lane. Gels were run at 4° C. for 10 minutes at 10 mA per gel followed by a further 25 minutes at 15 mA per gel. Gels were then cut into strips and each strip incubated for 2×20 minutes in a 2.5% Triton-X 100 solution containing a specific inhibitor. The inhibitors used were the serine protease inhibitor PMSF (5 mM), the metalloprotease inhibitor 1,10-phenanthroline (10 mM), the aspartic protease Pepstatin (5 μM) and the cysteine inhibitor E-64 (10 μM). The gel strips were then incubated in 0.1M Tris/HCl containing 1 mM CaCl2 pH 8 containing the different protease inhibitors for 3 hrs at 37° C., before being stained in Coomassie blue and destained as previously described.

head lice eggs = experiment: Assessment of commercial lice products in the standard lice egg-hatching assay; format: in vivo; conditions: summary in words
Method: These three products were tested according to manufacturer's recommendations. Groups of eggs (24 hr old) were treated with the different products according to manufacturer's recommendations for the appropriate period of time (5-10 minutes) followed by a rinse for 1-2 minutes in 32° C. water. A positive controls (10 mM 1,10-phenanthroline) and two negative controls (no treatment and 20% Methanol) were also incorporated. Post exposure to the different products, the eggs were rinsed with warm water at 32° C. before being blotted dry on tissue paper and placed at 32° C., 70% RH and left to hatch. A second group of eggs, (48 hr old) were treated as previously described and also left to hatch. This process was repeated at 24 hr intervals on head lice eggs up to 120 hr post laying. This method of assaying inhibitors more closely mirrors the field situation where lice eggs will be at various stages of development on the head and permits the inhibitory effects to be observed on these different stages of the parasite.
These two products were tested according to manufacturer's recommendations. Groups of eggs (24 hr old) were treated with the different products according to manufacturer's recommendations for the appropriate period of time (5-10 minutes) followed by a rinse for 1-2 minutes in 32° C. water. Two negative controls (no treatment and 20% ethanol) were also incorporated. […]

[3] = system: Helicoverpa armigera eggs (Tatura×Toowoomba strains); experiment: Egg hatching of Helicoverpa armigera; conditions: Table 14; 10 mM; relative to control
Method: Several hundred Helicoverpa armigera eggs (Tatura×Toowoomba strains) were collected, that had been laid on fine mesh cloth over a 24 hour period.
Batches of Helicoverpa eggs were exposed to a specific inhibitor solution for between 2-10 seconds the excess solution drained by blotting with dry tissue paper. The egg masses were then placed in a humid box at 25 degrees until egg hatch. Control eggs were exposed to absolute methanol as described above.

lice eggs = experiment: Lice egg-hatch bioassay, eggs treated five days post laying; format: in vivo, clothing lice (Pediculus humanus humanus)
Method: To evaluate the potential effects of protease inhibitors on lice egg hatching it was necessary to develop a reliable in vitro bioassay. Male and female clothing lice were fed on a rabbit as previously described. […] During this period the female lice laid their eggs and attached them to the woven cloth. All lice would then be removed and the eggs permitted to incubate for the following 5 days. […] The eggs would then progress through to their final stages of development and hatch. In untreated control eggs a reliable average percentage hatch of between 85-95 percent was obtained using the in vitro egg hatch assay. […] Lice eggs were laid onto cloth as described above. […] Protease inhibitor solutions were typically prepared as stock solutions and added fresh at the appropriate concentration. Specifically stock solutions were prepared as follows: 1,10-phenanthroline (200 mM in methanol) and bestatin (5 mg/ml in methanol). In addition, the equivalent levels of the solvent were added to the non-inhibitor containing controls eggs to test for any buffer alone effects. Percentage hatch inhibition was calculated as the percentage reduction in egg hatch compared to the untreated control.

How did the “% Inhibition” value [1] turn out when `c1cnc2c(c1)ccc1cccnc12` [1,10-phenanthroline] was run?
The value was “significantly inhibit egg hatching”.

What about the “protease activity of the ESW” value [2] of the same compound?
Its value is “significant reduction in protease activity”.

What about the “ovicidal activity across the different stages of lice egg hatching” value (head lice eggs) of the same compound?
The value was “highly effective at inhibiting lice egg hatching”.

And the “% Inhibition” value [3]?
The value was “able to inhibit egg hatching”.

And the “egg hatching in lice” value (lice eggs; 10 mM, eggs treated 5 days post laying)?
Its value is “significantly inhibited egg hatching”.

And the “inhibition of egg hatching” value (lice eggs; added within 24 hours of hatching)?
The value was “variable inhibition”.
